Measurements reported in paper PMC8217170, “Phase Ib dose-escalation study of the hypoxia-modifier Myo-inositol trispyrophosphate in patients with hepatopancreatobiliary tumors” (Nature Communications, 2021).
Where “and” joins values, the source holds several entries; their conditions need not be identical. Identical values can stand only once.

Test: Plasma levels and pharmacokinetics of intravenous ITPP
Conditions: for VSSO / VZO / AUCTmax / AUC∞ / AUC∞ / Dose / AUMCTmax / AUMC∞ / CLO / Clast / Cmax / Cmax / Dose / Cmin / Elimination rate λz / Half-life / T0.5 / MRTTmax / MRT∞ / Tlast / Tmax: individual patients

SMILES: O=P1(O)OC2C3OP(=O)(O)OP(=O)(O)OC3C3OP(=O)(O)OP(=O)(O)OC3C2OP(=O)(O)O1 (stereo not drawn) [ITPP, Myo-inositol trispyrophosphate]
- VSSO (cohort 2 (3732 mg/m2)): 10.6 L and 11.9 L and 8.8 L
- VZO (cohort 2 (3732 mg/m2)): 8.9 L and 10.8 L and 8.1 L
- AUCTmax (cohort 3 (5600 mg/m2)): 1142.0 µg·h/mL and 856.4 µg·h/mL and 1779.2 µg·h/mL
- AUC∞ (cohort 3 (5600 mg/m2)): 1264.3 µg·h/mL and 945.9 µg·h/mL and 1987.5 µg·h/mL
- AUC∞ / Dose (cohort 3 (5600 mg/m2)): 0.2 h*mg/L/mg (2×) and 0.4 h*mg/L/mg
- AUMCTmax (cohort 3 (5600 mg/m2)): 6061.8 h2*mg/L and 4859.5 h2*mg/L and 9884.9 h2*mg/L
- AUMC∞ (cohort 3 (5600 mg/m2)): 7579.9 h2*mg/L and 5932.4 h2*mg/L and 12427.3 h2*mg/L
- CLO (cohort 3 (5600 mg/m2)): 4.4 L/h and 5.9 L/h and 2.8 L/h
- Clast (cohort 3 (5600 mg/m2)): 50.5 µg/mL and 45.2 µg/mL and 94.2 µg/mL
- Cmax (cohort 3 (5600 mg/m2)): 163.0 µg/mL and 120.7 µg/mL and 246.0 µg/mL
- Cmax / Dose (cohort 3 (5600 mg/m2)): 0.0 mg/L/mg
- Cmin (cohort 3 (5600 mg/m2)): 0 ng/mL
- Elimination rate λz (cohort 3 (5600 mg/m2)): 0.4 /h and 0.5 /h (2×)
- Half-life / T0.5 (cohort 3 (5600 mg/m2)): 1.7 h and 1.4 h and 1.5 h
- MRTTmax (cohort 3 (5600 mg/m2)): 1.3 h and 1.7 h and 1.6 h
- MRT∞ (cohort 3 (5600 mg/m2)): 2.0 h and 2.3 h (2×)
- Tlast (cohort 3 (5600 mg/m2)): 10 h
- Tmax (cohort 3 (5600 mg/m2)): 6.0 h
- VSSO (cohort 3 (5600 mg/m2)): 8.8 L and 13.4 L and 6.3 L
- VZO (cohort 3 (5600 mg/m2)): 10.7 L and 11.7 L and 6.2 L
- AUCTmax (cohort 4 (7000 mg/m2)): 1942.5 µg·h/mL and 1258.2 µg·h/mL and 1667.1 µg·h/mL and 1676.0 µg·h/mL
- AUC∞ (cohort 4 (7000 mg/m2)): 3708.1 µg·h/mL and 1559.8 µg·h/mL and 2130.6 µg·h/mL and 1755.9 µg·h/mL
- AUC∞ / Dose (cohort 4 (7000 mg/m2)): 0.5 h*mg/L/mg and 0.2 h*mg/L/mg and 0.3 h*mg/L/mg (2×)
- AUMCTmax (cohort 4 (7000 mg/m2)): 11888.0 h2*mg/L and 7283.0 h2*mg/L and 9303.5 h2*mg/L and 8707.6 h2*mg/L
- AUMC∞ (cohort 4 (7000 mg/m2)): 44109.2 h2*mg/L and 11265.8 h2*mg/L and 15649.8 h2*mg/L and 9654.5 h2*mg/L
- CLO (cohort 4 (7000 mg/m2)): 1.9 L/h and 4.5 L/h and 3.3 L/h and 4.0 L/h
- Clast (cohort 4 (7000 mg/m2)): 214.0 µg/mL and 94.0 µg/mL and 125.5 µg/mL and 43.0 µg/mL
- Cmax (cohort 4 (7000 mg/m2)): 283.0 µg/mL and 166.5 µg/mL and 224.5 µg/mL and 292.0 µg/mL
- Cmax / Dose (cohort 4 (7000 mg/m2)): 0.0 mg/L/mg
- Cmin (cohort 4 (7000 mg/m2)): 0 ng/mL
- Elimination rate λz (cohort 4 (7000 mg/m2)): 0.1 /h and 0.3 /h (2×) and 0.5 /h
- Half-life / T0.5 (cohort 4 (7000 mg/m2)): 5.7 h and 2.2 h and 2.6 h and 1.3 h
- MRTTmax (cohort 4 (7000 mg/m2)): 2.1 h and 1.8 h and 1.6 h and 1.2 h
- MRT∞ (cohort 4 (7000 mg/m2)): 7.9 h and 3.2 h and 3.3 h and 1.5 h
- Tlast (cohort 4 (7000 mg/m2)): 10 h
- Tmax (cohort 4 (7000 mg/m2)): 9.0 h and 6.0 h (2×) and 3.0 h
- VSSO (cohort 4 (7000 mg/m2)): 14.9 L and 14.5 L and 11.0 L and 6.0 L
- VZO (cohort 4 (7000 mg/m2)): 15.6 L and 14.4 L and 12.1 L and 7.4 L
- AUCTmax (cohort 5 (8750 mg/m2)): 1729.5 µg·h/mL and 2397.4 µg·h/mL and 1424.5 µg·h/mL
- AUC∞ (cohort 5 (8750 mg/m2)): 1910.9 µg·h/mL and 2946.9 µg·h/mL and 1803.3 µg·h/mL
- AUC∞ / Dose (cohort 5 (8750 mg/m2)): 0.2 h*mg/L/mg (2×) and 0.3 h*mg/L/mg
- AUMCTmax (cohort 5 (8750 mg/m2)): 9560.8 h2*mg/L and 13507.9 h2*mg/L and 8120.6 h2*mg/L
- AUMC∞ (cohort 5 (8750 mg/m2)): 11777.2 h2*mg/L and 20800.6 h2*mg/L and 13329.9 h2*mg/L
- CLO (cohort 5 (8750 mg/m2)): 4.6 L/h and 3.0 L/h and 4.9 L/h
- Clast (cohort 5 (8750 mg/m2)): 81.5 µg/mL and 168.0 µg/mL and 101.0 µg/mL
- Cmax (cohort 5 (8750 mg/m2)): 266.5 µg/mL and 306.0 µg/mL and 201.0 µg/mL
- Cmax / Dose (cohort 5 (8750 mg/m2)): 0.0 mg/L/mg
- Cmin (cohort 5 (8750 mg/m2)): 0 ng/mL
- Elimination rate λz (cohort 5 (8750 mg/m2)): 0.4 /h and 0.3 /h (2×)
- Half-life / T0.5 (cohort 5 (8750 mg/m2)): 1.5 h and 2.3 h and 2.6 h
- MRTTmax (cohort 5 (8750 mg/m2)): 1.5 h and 1.6 h and 1.7 h
- MRT∞ (cohort 5 (8750 mg/m2)): 2.2 h and 3.1 h and 3.4 h
- Tlast (cohort 5 (8750 mg/m2)): 10 h
- Tmax (cohort 5 (8750 mg/m2)): 6.0 h
- VSSO (cohort 5 (8750 mg/m2)): 9.9 L and 9.1 L and 16.5 L
- VZO (cohort 5 (8750 mg/m2)): 10.2 L and 9.7 L and 18.2 L
- AUCTmax (cohort 6 (10500 mg/m2)): 1813.1 µg·h/mL and 2491.5 µg·h/mL and 3266.4 µg·h/mL and 2233.0 µg·h/mL
- AUC∞ (cohort 6 (10500 mg/m2)): 1921.1 µg·h/mL and 3551.0 µg·h/mL and 8601.3 µg·h/mL and 2661.5 µg·h/mL
- AUC∞ / Dose (cohort 6 (10500 mg/m2)): 0.2 h*mg/L/mg and 0.3 h*mg/L/mg (2×) and 0.8 h*mg/L/mg
- AUMCTmax (cohort 6 (10500 mg/m2)): 10264.8 h2*mg/L and 13653.6 h2*mg/L and 19354.9 h2*mg/L and 12411.4 h2*mg/L
- AUMC∞ (cohort 6 (10500 mg/m2)): 11500.0 h2*mg/L and 30316.3 h2*mg/L and 157035.6 h2*mg/L and 17933.0 h2*mg/L
- CLO (cohort 6 (10500 mg/m2)): 5.5 L/h and 3.0 L/h and 1.2 L/h and 3.9 L/h
- Clast (cohort 6 (10500 mg/m2)): 74.8 µg/mL and 185.0 µg/mL and 337.5 µg/mL and 148.5 µg/mL
- Cmax (cohort 6 (10500 mg/m2)): 265.0 µg/mL and 339.5 µg/mL and 451.0 µg/mL and 299.5 µg/mL
- Cmax / Dose (cohort 6 (10500 mg/m2)): 0.0 mg/L/mg
- Cmin (cohort 6 (10500 mg/m2)): 0 ng/mL
- Elimination rate λz (cohort 6 (10500 mg/m2)): 0.7 h⁻¹ and 0.2 h⁻¹ and 0.1 h⁻¹ and 0.3 h⁻¹
- Half-life / T0.5 (cohort 6 (10500 mg/m2)): 1.0 h and 4.0 h and 11.0 h and 2.0 h
- MRTTmax (cohort 6 (10500 mg/m2)): 1.7 h and 1.5 h and 1.9 h and 1.6 h
- MRT∞ (cohort 6 (10500 mg/m2)): 2.0 h and 4.5 h and 14.3 h and 2.7 h
- Tlast (cohort 6 (10500 mg/m2)): 10 h
- Tmax (cohort 6 (10500 mg/m2)): 6.0 h (2×) and 3.0 h (2×)
- VSSO (cohort 6 (10500 mg/m2)): 10.9 L and 13.4 L and 17.4 L and 10.8 L
- VZO (cohort 6 (10500 mg/m2)): 7.9 L and 16.9 L and 19.3 L and 11.4 L
- AUCTmax (cohort 7 (12390 mg/m2)): 2548.8 µg·h/mL and 2725.4 µg·h/mL and 2231.0 µg·h/mL
- AUC∞ (cohort 7 (12390 mg/m2)): 3050.7 µg·h/mL and 3012.0 µg·h/mL and 2566.2 µg·h/mL
- AUC∞ / Dose (cohort 7 (12390 mg/m2)): 0.2 mg·h/L/mg
- AUMCTmax (cohort 7 (12390 mg/m2)): 14937.6 h2*mg/L and 15888.2 h2*mg/L and 12461.8 h2*mg/L
- AUMC∞ (cohort 7 (12390 mg/m2)): 21377.1 h2*mg/L and 19295.7 h2*mg/L and 16684.7 h2*mg/L
- CLO (cohort 7 (12390 mg/m2)): 4.1 L/h (2×) and 4.8 L/h
- Clast (cohort 7 (12390 mg/m2)): 177.5 µg/mL and 152.0 µg/mL and 129.0 µg/mL
- Cmax (cohort 7 (12390 mg/m2)): 367.5 µg/mL and 403.5 µg/mL and 311.0 µg/mL
- Cmax / Dose (cohort 7 (12390 mg/m2)): 0.0 mg/L/mg
- Cmin (cohort 7 (12390 mg/m2)): 0 ng/mL
- Elimination rate λz (cohort 7 (12390 mg/m2)): 0.4 /h (2×) and 0.5 /h
- Half-life / T0.5 (cohort 7 (12390 mg/m2)): 2.0 h and 1.3 h and 1.8 h
- MRTTmax (cohort 7 (12390 mg/m2)): 1.9 h and 1.8 h and 1.6 h
- MRT∞ (cohort 7 (12390 mg/m2)): 3.0 h and 2.4 h and 2.5 h
- Tlast (cohort 7 (12390 mg/m2)): 10 h
- Tmax (cohort 7 (12390 mg/m2)): 6.0 h
- VSSO (cohort 7 (12390 mg/m2)): 12.2 L and 9.9 L and 12.1 L
- VZO (cohort 7 (12390 mg/m2)): 11.5 L and 7.8 L and 12.5 L
- AUCTmax (cohort 8 (14500 mg/m2)): 3458.0 µg·h/mL and 2612.8 µg·h/mL and 3213.9 µg·h/mL and 2461.1 µg·h/mL
- AUC∞ (cohort 8 (14500 mg/m2)): 3978.5 µg·h/mL and 2818.3 µg·h/mL and 3977.9 µg·h/mL and 2763.6 µg·h/mL
- AUC∞ / Dose (cohort 8 (14500 mg/m2)): 0.3 h*mg/L/mg (2×) and 0.2 h*mg/L/mg (2×)
- AUMCTmax (cohort 8 (14500 mg/m2)): 20144.2 h2*mg/L and 14245.4 h2*mg/L and 18540.8 h2*mg/L and 14081.6 h2*mg/L
- AUMC∞ (cohort 8 (14500 mg/m2)): 26577.3 h2*mg/L and 16679.9 h2*mg/L and 28758.2 h2*mg/L and 17835.7 h2*mg/L
- CLO (cohort 8 (14500 mg/m2)): 3.6 L/h (2×) and 5.1 L/h and 5.2 L/h
- Clast (cohort 8 (14500 mg/m2)): 220.5 µg/mL and 111.5 µg/mL and 226.5 µg/mL and 125.7 µg/mL
- Cmax (cohort 8 (14500 mg/m2)): 496.0 µg/mL and 377.0 µg/mL and 464.5 µg/mL and 426.0 µg/mL
- Cmax / Dose (cohort 8 (14500 mg/m2)): 0.0 mg/L/mg
- Cmin (cohort 8 (14500 mg/m2)): 0 ng/mL
- Elimination rate λz (cohort 8 (14500 mg/m2)): 0.4 /h (2×) and 0.5 /h and 0.3 /h
- Half-life / T0.5 (cohort 8 (14500 mg/m2)): 1.6 h and 1.3 h and 2.3 h and 1.7 h
- MRTTmax (cohort 8 (14500 mg/m2)): 1.8 h (2×) and 1.5 h and 1.7 h
- MRT∞ (cohort 8 (14500 mg/m2)): 2.7 h and 1.9 h and 3.2 h and 2.5 h
- Tlast (cohort 8 (14500 mg/m2)): 10 h
- Tmax (cohort 8 (14500 mg/m2)): 6.0 h
- VSSO (cohort 8 (14500 mg/m2)): 9.8 L and 9.9 L and 11.8 L and 12.9 L
- VZO (cohort 8 (14500 mg/m2)): 8.6 L and 9.5 L and 12.3 L and 12.6 L
- Half-life (range over the different cohorts): 1.3 to 3.3 h
